Results on 17 compounds are retold here after article PMC3226499, “Environmental Impact on Vascular Development Predicted by High-Throughput Screening” (Environmental Health Perspectives, 2011).

Like-named read-outs stand apart in the source and are kept apart here.

One data set relates to mouse. The conditions noted are these: cited from earlier work.
A further data set deals with VEGFR2 (Homo sapiens, UniProt P35968). Description: VEGFR2 biochemical assay. Particulars: read-out: VEGFR2 AC50; biochemical.
The subject of data set [1] is six prioritized vascular targets (VEGFR2, TIE2, CCL2, PAI-1, CXCL10, uPAR). Description: Vascular bioactivity score (VBS): weighted sum of activity across 23 ToxCast assays. On the set-up: species or system human.
In a further data set the target is TIE2 (Homo sapiens, UniProt Q02763). In words: TIE2 cell-free biochemical assay.
The target of the next data set is PI3Ka (Homo sapiens, UniProt P42336). In words: PI3Ka biochemical assay.
The target of the next data set is PTEN (Homo sapiens, UniProt P60484). Description: PTEN biochemical assay. The conditions noted are these: read-out: PTEN AC50.
For the next data set, the target named is VEGFR1 (Homo sapiens, UniProt P17948). Description: VEGFR1 biochemical assay. The conditions noted are these: read-out: VEGFR1 AC50.
The target of another data set is VEGFR3 (Homo sapiens, UniProt P35916). In words: VEGFR3 biochemical assay. Particulars: read-out: VEGFR3 AC50.
Another data set has as its target T1, EphB2 (Homo sapiens, UniProt P29323).
T1 sequence (P29323 569-986 isoform P29323-2 limits assumed): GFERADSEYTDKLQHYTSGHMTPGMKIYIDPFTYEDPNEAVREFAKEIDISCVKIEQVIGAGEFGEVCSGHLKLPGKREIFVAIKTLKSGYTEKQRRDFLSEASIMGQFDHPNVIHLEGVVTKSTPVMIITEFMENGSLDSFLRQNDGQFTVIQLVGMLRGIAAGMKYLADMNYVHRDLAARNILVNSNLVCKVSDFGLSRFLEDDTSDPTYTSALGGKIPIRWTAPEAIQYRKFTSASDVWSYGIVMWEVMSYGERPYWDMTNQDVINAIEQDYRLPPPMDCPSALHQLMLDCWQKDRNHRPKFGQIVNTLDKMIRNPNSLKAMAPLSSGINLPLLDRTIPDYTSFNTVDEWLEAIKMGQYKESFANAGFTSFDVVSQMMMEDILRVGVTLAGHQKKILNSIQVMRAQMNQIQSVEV
In words: EphB2 biochemical assay. The conditions noted are these: read-out: EphB2 AC50.

The test system of data set [2] is VEGF expression and VEGFR2 phosphorylation. More on the design: method as in Joussen et al. 2001; Satchi-Fainaro et al. 2005. Particulars: ocular vasculature; ref Joussen et al. 2001; Satchi-Fainaro et al. 2005; cited from earlier work.
The next data set deals with murine pregnancy. Particulars: administered early or late in murine pregnancy, respectively; ref Rutland et al. 2005; cited from earlier work.
The subject of data set [3] is placental vascular remodeling. Particulars: rats; correlated with decreased expression of TIE2 mRNA; ref Ishimura et al. 2009; cited from earlier work.
The test system of the next data set is various species. Particulars: cited from earlier work.
A further data set relates to pregnant rats. Particulars: rat-specific effects in ToxRefDB prenatal studies; ref U.S. EPA 2010b; cited from earlier work.
In the next data set the test system is PAI-1. Description: BioMAP protein readout: PAI-1 up- and down-regulation. The class given is cell-based, human. An excerpt: (§1) Source data. […] Assays measured direct interactions between chemicals and molecular targets (receptors, enzymes), as well as downstream effects on reporter gene activity or cellular consequences. […] The perturbation scores are a method of aggregating assays into groups and providing a higher-level view of chemical activity across important signaling pathways.
(§2) Identifying pVDCs. Six assay targets emerged as most relevant to embryonic blood vessel formation based on biological plausibility and prevalence in the VasculoDB literature. These targets have been previously identified, based on murine knockout models or significant associations between biomarker data and adverse pregnancy effects, as critical to proper embryonic blood vessel formation or maternal–fetal placental circulation. In order of descending influence (with corresponding references highlighting their importance to vascular development), these were down-regulation of the receptor tyrosine kinase (RTK) VEGFR2 ([Drake et al. 2007]); inhibition of the enzymatic activity of TIE2, an angiogenic RTK ([Patan 1998]); down-regulation of the proangiogenic chemokine CCL2 ([Keeley et al. 2008]); perturbation of the plasminogen-activating system (PAS) controlling extracellular matrix breakdown via up- or down-regulation of plasminogen activator inhibitor type 1 (PAI-1/SERPINE1) ([Behzadian et al. 2003]); up-regulation of the proinflammatory antiangiogenic chemokine CXCL10 ([Romagnani et al. 2001]); and perturbation of the PAS via up- or down-regulation of urokinase-type plasminogen activator receptor (uPAR/PLAUR) ([D’Alessio and Blasi 2009]).
(§3) As predicted, thalidomide and 5HPP-33 were active across most of the pVDC signature assay targets. […] 5HPP-33 also had effects on uPAR in the endothelial cell system at 10 µM. […] Both compounds, however, fell above the mean VBS cutoff and would be classified as pVDCs based on in vitro activity for vascular targets identified by the ToxCast data and chemicals. […] Thus, our findings with reference compounds known to be antiangiogenic support the contention that VBS is an effective metric for vascular disruption.

The subject of another data set is CXCL10. In words: BioMAP protein readout: CXCL10 up-regulation. The class given is cell-based, human.
Source text: as §1
Identifying pVDCs. Six assay targets emerged as most relevant to embryonic blood vessel formation based on biological plausibility and prevalence in the VasculoDB literature. These targets have been previously identified, based on murine knockout models or significant associations between biomarker data and adverse pregnancy effects, as critical to proper embryonic blood vessel formation or maternal–fetal placental circulation. […]

Data set [4] has as its system human umbilical vein endothelial cell. On the set-up: method as in Noguchi et al. 2005. The conditions noted are these: ref Noguchi et al. 2005; cited from earlier work.
A further data set relates to uPAR. In words: BioMAP protein readout: uPAR up- and down-regulation. The class given is cell-based, human.
Source text: as §1, §2, §3

The next data set has as its system CCL2. In words: BioMAP protein readout: CCL2 down-regulation. The data set is classed as cell-based, human.
Source text: as §1, §2, §3

The subject of data set [5] is rat. Particulars: cited from earlier work.
Data set [6] relates to rat. The conditions noted are these: in vivo; cited from earlier work.
Another data set deals with rat/rabbit. The conditions noted are these: in vivo; cited from earlier work.
The mark [7] stands for this setting: ToxRefDB end points, ref U.S. EPA 2010b.
[8] abbreviates: read-out: TIE2 AC50, repeat of the TIE2 assay from the original data series.
[9] abbreviates: species and reference printed with each result.

Chain of PTEN (P60484 whole entry, species assumed): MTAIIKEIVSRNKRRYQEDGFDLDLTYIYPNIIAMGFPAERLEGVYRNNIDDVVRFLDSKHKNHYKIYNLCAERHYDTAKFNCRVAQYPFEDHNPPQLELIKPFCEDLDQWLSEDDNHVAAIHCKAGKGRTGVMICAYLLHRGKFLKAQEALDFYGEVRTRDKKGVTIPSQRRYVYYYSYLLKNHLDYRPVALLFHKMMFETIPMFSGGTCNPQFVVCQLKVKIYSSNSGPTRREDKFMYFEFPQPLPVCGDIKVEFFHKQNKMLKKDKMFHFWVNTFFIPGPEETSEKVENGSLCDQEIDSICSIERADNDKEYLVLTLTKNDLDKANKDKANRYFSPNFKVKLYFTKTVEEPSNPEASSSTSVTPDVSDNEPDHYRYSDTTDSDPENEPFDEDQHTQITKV
Chain of VEGFR1 (P17948 27-1338, species assumed): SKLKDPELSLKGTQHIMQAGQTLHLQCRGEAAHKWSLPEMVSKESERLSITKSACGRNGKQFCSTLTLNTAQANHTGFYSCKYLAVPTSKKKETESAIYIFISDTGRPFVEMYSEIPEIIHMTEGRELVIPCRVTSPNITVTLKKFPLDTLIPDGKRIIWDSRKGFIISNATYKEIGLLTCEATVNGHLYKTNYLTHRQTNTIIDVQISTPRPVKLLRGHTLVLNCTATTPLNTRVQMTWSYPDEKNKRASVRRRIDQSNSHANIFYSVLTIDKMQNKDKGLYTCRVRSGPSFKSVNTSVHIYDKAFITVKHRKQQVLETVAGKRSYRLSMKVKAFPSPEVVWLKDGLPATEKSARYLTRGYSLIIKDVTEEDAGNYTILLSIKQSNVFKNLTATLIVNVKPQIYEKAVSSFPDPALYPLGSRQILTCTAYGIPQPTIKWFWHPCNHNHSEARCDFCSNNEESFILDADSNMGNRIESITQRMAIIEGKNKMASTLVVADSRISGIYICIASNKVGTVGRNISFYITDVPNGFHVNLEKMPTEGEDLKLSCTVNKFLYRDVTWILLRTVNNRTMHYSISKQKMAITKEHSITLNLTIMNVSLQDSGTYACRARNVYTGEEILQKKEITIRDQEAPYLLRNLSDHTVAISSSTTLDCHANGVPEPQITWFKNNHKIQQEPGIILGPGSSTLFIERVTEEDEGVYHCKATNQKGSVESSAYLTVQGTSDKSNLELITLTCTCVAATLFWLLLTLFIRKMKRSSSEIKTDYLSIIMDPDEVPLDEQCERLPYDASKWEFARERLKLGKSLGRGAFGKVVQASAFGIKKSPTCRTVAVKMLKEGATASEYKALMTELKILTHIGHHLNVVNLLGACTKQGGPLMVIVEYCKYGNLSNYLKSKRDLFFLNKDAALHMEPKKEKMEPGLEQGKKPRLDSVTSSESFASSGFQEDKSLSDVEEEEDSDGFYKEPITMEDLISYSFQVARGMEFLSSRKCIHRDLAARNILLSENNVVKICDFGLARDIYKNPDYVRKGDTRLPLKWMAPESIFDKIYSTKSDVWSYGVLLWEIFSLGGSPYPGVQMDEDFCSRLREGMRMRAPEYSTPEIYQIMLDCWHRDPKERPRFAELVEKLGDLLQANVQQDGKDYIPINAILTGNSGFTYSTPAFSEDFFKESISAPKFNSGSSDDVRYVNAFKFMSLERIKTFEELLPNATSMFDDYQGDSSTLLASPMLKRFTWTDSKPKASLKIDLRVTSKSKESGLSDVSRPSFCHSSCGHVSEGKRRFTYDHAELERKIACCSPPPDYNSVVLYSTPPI
Chain of TIE2 (Q02763 23-1124, species assumed): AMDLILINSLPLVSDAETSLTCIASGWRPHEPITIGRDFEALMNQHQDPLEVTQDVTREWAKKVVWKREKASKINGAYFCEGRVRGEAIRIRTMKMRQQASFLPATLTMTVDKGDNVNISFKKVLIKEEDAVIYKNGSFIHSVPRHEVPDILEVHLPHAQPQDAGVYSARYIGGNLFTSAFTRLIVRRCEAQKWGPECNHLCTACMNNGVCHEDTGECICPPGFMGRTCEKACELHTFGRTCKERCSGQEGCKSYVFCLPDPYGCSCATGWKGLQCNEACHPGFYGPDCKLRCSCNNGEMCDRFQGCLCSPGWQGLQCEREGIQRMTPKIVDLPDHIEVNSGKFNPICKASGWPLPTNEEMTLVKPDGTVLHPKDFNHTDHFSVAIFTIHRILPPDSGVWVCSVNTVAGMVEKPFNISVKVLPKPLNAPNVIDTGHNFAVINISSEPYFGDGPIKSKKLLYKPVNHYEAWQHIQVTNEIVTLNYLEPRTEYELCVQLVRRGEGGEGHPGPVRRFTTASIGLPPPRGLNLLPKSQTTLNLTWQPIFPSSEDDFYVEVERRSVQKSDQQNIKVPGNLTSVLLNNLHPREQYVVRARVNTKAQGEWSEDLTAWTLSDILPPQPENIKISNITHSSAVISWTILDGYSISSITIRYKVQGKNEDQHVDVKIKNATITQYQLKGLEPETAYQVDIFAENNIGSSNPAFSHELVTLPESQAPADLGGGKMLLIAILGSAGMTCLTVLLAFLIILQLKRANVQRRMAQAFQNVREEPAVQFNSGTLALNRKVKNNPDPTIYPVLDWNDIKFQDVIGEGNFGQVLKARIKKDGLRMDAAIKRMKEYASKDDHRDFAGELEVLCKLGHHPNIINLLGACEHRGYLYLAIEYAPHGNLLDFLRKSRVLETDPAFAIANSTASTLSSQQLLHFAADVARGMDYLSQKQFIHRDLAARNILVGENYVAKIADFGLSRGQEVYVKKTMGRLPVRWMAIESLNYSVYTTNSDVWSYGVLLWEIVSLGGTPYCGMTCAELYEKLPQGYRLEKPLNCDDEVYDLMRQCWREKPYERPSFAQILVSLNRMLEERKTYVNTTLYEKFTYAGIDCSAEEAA
Chain of VEGFR2 (P35968 20-1356, species assumed): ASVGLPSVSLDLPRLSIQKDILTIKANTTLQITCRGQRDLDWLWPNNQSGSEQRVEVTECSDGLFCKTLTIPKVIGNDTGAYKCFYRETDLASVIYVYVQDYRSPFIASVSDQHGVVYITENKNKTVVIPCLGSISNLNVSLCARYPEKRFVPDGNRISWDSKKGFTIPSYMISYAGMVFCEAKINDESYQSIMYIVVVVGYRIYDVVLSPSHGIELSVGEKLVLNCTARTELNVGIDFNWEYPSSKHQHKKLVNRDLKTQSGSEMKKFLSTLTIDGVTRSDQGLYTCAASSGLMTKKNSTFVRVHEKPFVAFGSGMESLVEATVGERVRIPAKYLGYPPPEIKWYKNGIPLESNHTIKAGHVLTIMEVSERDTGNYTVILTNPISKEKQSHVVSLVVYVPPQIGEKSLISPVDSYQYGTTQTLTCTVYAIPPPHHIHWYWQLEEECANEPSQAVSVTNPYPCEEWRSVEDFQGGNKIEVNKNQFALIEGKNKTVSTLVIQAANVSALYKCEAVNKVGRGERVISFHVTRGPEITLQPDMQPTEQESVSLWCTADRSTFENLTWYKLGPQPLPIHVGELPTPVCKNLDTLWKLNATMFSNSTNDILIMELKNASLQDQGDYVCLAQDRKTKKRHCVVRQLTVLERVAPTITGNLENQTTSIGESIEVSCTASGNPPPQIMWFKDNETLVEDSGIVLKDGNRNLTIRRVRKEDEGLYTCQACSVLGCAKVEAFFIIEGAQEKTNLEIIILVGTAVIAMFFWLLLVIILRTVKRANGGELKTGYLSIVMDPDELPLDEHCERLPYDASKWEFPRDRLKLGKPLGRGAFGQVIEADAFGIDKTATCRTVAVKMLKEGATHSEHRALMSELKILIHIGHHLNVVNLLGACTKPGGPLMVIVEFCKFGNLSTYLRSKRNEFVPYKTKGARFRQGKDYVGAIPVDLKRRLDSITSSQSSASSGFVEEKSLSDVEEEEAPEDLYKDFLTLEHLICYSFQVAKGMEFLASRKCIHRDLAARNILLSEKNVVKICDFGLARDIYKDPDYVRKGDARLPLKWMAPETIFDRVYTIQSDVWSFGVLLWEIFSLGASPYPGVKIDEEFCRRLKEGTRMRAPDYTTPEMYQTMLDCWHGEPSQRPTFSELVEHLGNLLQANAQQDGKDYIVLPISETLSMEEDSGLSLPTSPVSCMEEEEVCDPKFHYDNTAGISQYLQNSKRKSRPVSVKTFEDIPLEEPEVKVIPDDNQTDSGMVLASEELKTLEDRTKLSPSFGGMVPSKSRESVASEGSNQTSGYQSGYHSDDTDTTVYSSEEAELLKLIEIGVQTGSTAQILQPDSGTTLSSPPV
Source text for VEGFR1: The chemical library was run against these assays, as was a repeat of the TIE2 assay from the original data series (Table 2).

On to `CCOP(=S)(OCC)Oc1ccc2c(C)c(Cl)c(=O)oc2c1` [Coumaphos], for which the “MOUSE Chronic” value in the data set on mouse (setting [7]) was “No effe ct re corded”.

For Metiram-zinc, the concentration at half-maximal activity (AC50) at VEGFR2 came to 41 µM; on TIE2 (setting [8]), 15 µM; on PTEN, 12000 nM; on VEGFR1 it was 6.6 µM; on VEGFR3, 22 µM. This compound yielded a VBS in data set [1] (ToxCast chemicals of Table 2) of 4.35. On PI3Ka, the “PI3Ka AC50” value is given as 29 µM.

`O=C(O)C1(C(=O)Nc2ccc(Cl)cc2Cl)CC1` [Cyclanilide] showed a VBS in [1] (ToxCast chemicals of Table 2) of 0.21. For the same compound, the values for the concentration at half-maximal activity (AC50) at PTEN and on EphB2 were 3900 nM and 50 µM, respectively.

Turning to `CO[C@@H]1[C@H](OC(=O)NC(=O)CCl)CC[C@]2(CO2)[C@H]1[C@@]1(C)O[C@@H]1CC=C(C)C` [TNP-470, O-[chloroacetyl-carbamoyl]fumagillol], the “effect on VEGF expression and VEGFR2 phosphorylation” value in data set [2] is given as “significant decrease”. The pregnancy outcome in the data set with murine pregnancy was “spontaneous resorption and intrauterine growth restriction”.

For the compound `Clc1cc2c(cc1Cl)Oc1cc(Cl)c(Cl)cc1O2` [TCDD, 2,3,7,8-tetrachlorodibenzo-p-dioxin], the placental vascular remodeling entry in data set [3] was “suppressed”.

Take `CCc1ccc(C(=O)NN(C(=O)c2cc(C)cc(C)c2)C(C)(C)C)cc1` [Tebufenozide]: the “MOUSE Chronic” value in the data set on mouse (setting [7]) is on record as “Spleen_ AnyLesion”.

In the case of `O=C(O)C(F)(F)C(F)(F)C(F)(F)C(F)(F)C(F)(F)C(F)(F)C(F)(F)F` [Perfluorooctanoic acid], the “VTKB Results (peer-reviewed in vivo studies)” value (shortened to “VTKB Results”) in the data set with various species (setting [9]) is “mammalian developmental toxicity”. The compound further yielded a VBS in [1] (ToxCast chemicals of Table 2) of 3.04. At TIE2, this compound showed an AC50 of 31.9 µM.

On to Emamectin benzoate, for which the VBS in [1] (ToxCast chemicals of Table 2) and in [1] (pVDCs with rat-specific effects) was 2.91 throughout. Also, on PI3Ka, the “PI3Ka AC50” value is reported as 7.9 µM. Besides, the AC50 came to 2100 nM on PTEN and 21 µM at EphB2. Further, in the data set with pregnant rats, the Developmental phenotype entry was “Fetal weight reduction; skeletal: appendicular, axial, cranial”.

For `O=C1CCC(N2C(=O)c3ccccc3C2=O)C(=O)N1` (stereo not shown) [Thalidomide], in the data set with PAI-1 (fibroblasts), the “PAI-1 up-regulation, effective concentration” value is 40 µM. Besides, the “PAI-1 up- and down-regulation LEC” value with PAI-1 (lowest effective concentration) was 40 µM. Besides, the “predicted vascular disruption from VBS rank” value in [1] (among all 311 compounds tested) was “moderate vascular disruptor”. Moreover, the VBS in data set [1] (summed activity across 23 assays, 6 assay targets, reference antiangiogenic compounds) stood at 1.76. Further, on TIE2, the concentration at half-maximal activity (AC50) is above 50 µM and the “AC50 in the TIE2 assay (in words)” value is on record as “Neither compound affected the CXCL10 signal assay or produced an AC50 in the TIE2 assay”. For the same compound, the “effect on CXCL10 signal assay” value with CXCL10 was “Neither compound affected”. Also, the “inhibition of tube formation” value in data set [4] is listed as ~ 30%. Moreover, in the data set with uPAR (endothelial cells), the “uPAR up-regulation, effective concentration” value came out at 2.5 µM. Further, the “uPAR up- and down-regulation LEC” value in the data set on uPAR (lowest effective concentration) was determined as 2.5 µM. Besides, the “CCL2 down-regulation LEC” value in the data set on CCL2 (coculture of peripheral blood mononuclear cells and endothelial cells) worked out at 0.625 µM. Also, in the data set on CCL2 (lowest effective concentration), the “CCL2 down-regulation LEC” value worked out at 0.625 µM.

Take `C=CCOC(Cn1ccnc1)c1ccc(Cl)cc1Cl` (stereo not shown) [Imazalil]: in the data set with various species (setting [9]), the “VTKB Results” value was “mammalian developmental toxicity”.

Regarding Mancozeb, the concentration at half-maximal activity (AC50) on VEGFR2 came out at 5.9 µM; on TIE2 (setting [8]) it was 10.4 µM; at PTEN, 230 nM; on VEGFR1, 19 µM; at EphB2, 21 µM; on VEGFR3, 1.3 µM. The compound further registered a VBS in data set [1] (ToxCast chemicals of Table 2) of 3.00. In addition, the “PI3Ka AC50” value at PI3Ka came to 20 µM.

`CC(C)N1C(=O)c2ccccc2NS1(=O)=O` [Bentazone]: the “RAT Multigenerational” value in the data set with rat [5] (setting [7]) is “Kidney; Liver”.

Consider `CCC(C)(NC(=O)c1cc(Cl)c(C)c(Cl)c1)C(=O)CCl` (stereo not shown) [Zoxamide], for which the “MOUSE Chronic” value with mouse (mouse, in vivo) is reported as “LungTumors; Lung_ AnyLesion, PreneoplasticL esion, Neoplasti cLesion; Tumorigen”. Besides, the “RAT Chronic” value in the data set with rat [6] is on record as “No effe ct re corded”. For the same compound, in the data set on rat [5] (rat, in vivo), the “RAT Multigenerational” value is “No effe ct recorded”. In addition, in the data set with rat/rabbit, the “RAT/RABBIT Developmental” value was “No effe ct recorded”.

As for `S=C([S-])NCCNC(=S)[S-].[Mn+2]` [Maneb], the AC50 amounted to 31 µM at VEGFR2; 8.08 µM at TIE2 (setting [8]); 900 nM on PTEN; 4.1 µM on VEGFR1; 23 µM on EphB2; 12 µM at VEGFR3. The compound also came in with a VBS in data set [1] (ToxCast chemicals of Table 2) of 4.69.

Consider `N#Cc1nn(-c2c(Cl)cc(C(F)(F)F)cc2Cl)c(N)c1[S+]([O-])C(F)(F)F` (stereo not shown) [Fipronil], for which the “VTKB Results” value in the data set on various species (in vivo) is given as “Developmental Neurotoxi city: Zebrafish (Stehr e t al. 2006)”. Besides, the “MOUSE Chronic” value in the data set on mouse (mouse, in vivo) was “LiverHypertrophy; LiverNec rosis; LiverProli ferativeLes ions; Liver_ AnyLes ion, PreneoplasticL esion”. Besides, the “RAT Chronic” value with rat [6] was “KidneyNephropath y; Kidney_ AnyLesion; ThyroidGland_ AnyLesion, PreneoplasticL esion, Neoplasti cLesion; ThyroidProliferativeLesions; ThyroidTumors; Tumorigen”. The “RAT Multigenerational” value with rat [5] (rat, in vivo) is “Epididymis; Fertili ty; LitterSize; LiveBir thPND1; Liver; Mating; Ovary; Thyroid; ViabilityPND4”. Further, in the data set with rat/rabbit, the “RAT/RABBIT Developmental” value was “No effe ct recorded”.

Abamectin returned a VBS in [1] (ToxCast chemicals of Table 2) of 5.19. Also, the AC50 at TIE2 (setting [8]) was 38.8 µM; at EphB2 it was 17 µM. Also, the “PI3Ka AC50” value at PI3Ka turned out to be 6.4 µM.

In the case of `O=S(=O)(O)C(F)(F)C(F)(F)C(F)(F)C(F)(F)C(F)(F)C(F)(F)C(F)(F)C(F)(F)F` [Perfluorooctanesulfonic acid], the AC50 came out at 50 µM at VEGFR2; 4.43 µM at TIE2 (setting [8]); 17000 nM on PTEN; 8.2 µM at VEGFR1; 8 µM at VEGFR3. Besides, the VBS in data set [1] (ToxCast chemicals of Table 2) was 3.48. For the same compound, the “PI3Ka AC50” value on PI3Ka is 6.5 µM.

The AC50 is the concentration giving half of the maximal activity seen.
